Reference: patent US20260007652A1, “Selective Modulators of AhR-Regulated Transcription and Method for Using Such Modulators to Treat Cancer” (OREGON STATE UNIVERSITY, priority 2022, published 2026)

How the values were obtained:
H460 cells [1] = test: Senescence-associated beta-galactosidase staining, H460 cells; assay type: cell-based, human
Description: H460 cells were seeded at 2×10^5 cells/well in 6-well plate overnight and treated with indicated compounds for 5 days. Media and treatments were refreshed on the […]. Cells were stained for senescence-associated β-galactosidase (SA-βgal) using 5-dodecanoylaminofluorescein di-β-D-galactopyranoside (C12FDG). Briefly, media were aspirated and replaced with fresh media containing 0.1 μM bafilomycin A1 (Calbiochem) and incubated for 1 hour in cell culture incubator. C12FDG (Setare Biotech) was added with a final concentration of 33 μM and incubated for another hour. Fluorescent signal was recorded using CytoFlex S cytometer for 10,000 cells per sample.

AhR = test: Xenobiotic response element (XRE) driven reporter in Hepa-1 cells, AhR activation; assay type: cell-based, mouse
Description: FIGS. 69A-69D show representative 11-Cl-BBQ analogs (848 and 849) as non-classical AHR ligands. (A) Stability of AHR protein in the H460 whole cell lysate in the presence or absence of 11-Cl-BBQ (5 μM), PRXS-848 (10 μM), and PRXS-849 (10 μM) at the indicated temperatures; GADPH was used as a loading control. (B) Localization of AHR protein in the H460 treated with 11-Cl-BBQ (100 nM), PRXS-848 (250 nM), PRXS-849 (250 nM), or vehicle control (0.1% DMSO) for two hours; top horizontal panel: AHR protein staining using an AHR-specific antibody conjugated with FITC (green) fluorophore; middle panel: DAPI staining; bottle panel: overlaid images from the top panel and the middle panel in the same column. (C) AHR activation (measured by XRE-luciferase reporter assay in Hepa1 cells) of the parental lead 11-Cl-BBQ and analogs PRXS-848 and PRXS-849 at the indicated concentrations for 16 hours. (D) AHR activation of 11-Cl-BBQ cotreated with a known AHR antagonist CH223191 (1 μM) or 11-Cl-BBQ analogs PRXS-848 and PRXS-849 at the indicated concentrations for 16 hours.
FIG. 76 presents representative AhR compounds (BBQ analogs) of the invention effective for activation of AhR transcription. Activation values greater than 1 at 100 nM were considered a hit with nanomolar affinity to promote AhR activity and synergize with the identified compounds from the synergy screens. Referring to FIG. 76, Fold@ 1 nM refers to activation of AhR transcription at 1 nM; Fold@100 nM refers to activation of AbR transcription at 100 nM; and Fold rel @ 100 refers to relative activation at 100 nM compared to parental compound, 11-Cl-BBQ. The representative AhR ligand compounds presented in FIG. 76 activate AhR transcription and therefore are useful as anti-cancer agents, either alone or in combination with the synergizing compounds (and chemotherapeutic agents) described herein.
was identified as a top hit compound based on its potent (>50% inhibition at 0.1 μM), and selective activity against AhR WT cells versus AhR KO cells (>70% difference between WT and KO cells at 10 μM) (FIG. 11). […] This confirmed Analog 523 activates AhR-mediated transcription and functions as an AhR ligand.

HepG2 cells = test: Colony forming assay, HepG2 cells; assay type: cell-based, human; conditions: alone
Description: FIGS. 75A-75C compare the effects of 11-Cl-BBQ and Evoxine in hepatoma: A) Mouse Hepa-1 cells were treated with 11-Cl-BBQ, Evoxine either alone or in combination for 48 hours before assessing cell viability using Cell-Titer Glo Viability Assay. B) Hepa-1 cells treated with Evoxine, 11-Cl-BBQ either alone or in combination for 48 hours with induction of cell death measured by Annexin-V staining and detection by flow cytometry. C) Colony forming assay of HepG2 human hepatocellular carcinoma cells seeded at 300 cell/well in a 24-well plate before treatment with 11-Cl-BBQ, Evoxine either alone or in combination at the indicated concentrations for two weeks, followed by fixation and staining with methylene blue. Quantitation of colonies is shown on the right.
Cells were seeded at a density of 500 cell/well in triplicate in 6-well plates, and the following day, cells were treated with compounds and allowed to incubate for 2-3 weeks before fixation with 50% ethanol/water solution containing 0.1% methylene blue overnight. Colonies were counted manually, or with OpenCFU colony counting software, Images were acquired on a ChemiDoc imaging instrument.

MDA-MB-468 cells = test: Annexin-V apoptosis assay, MDA-MB-468 cells; assay type: cell-based, human; conditions: alone
Description: FIGS. 72A-72C presents the characterization of combinations on TNBC cell viability and cell death. Quantitation of Annexin-V staining of MDA-MB-468 cells treated with either 10 μM evoxine, 10 μM citropten, 0.25 μM 11-Cl-BBQ, or corresponding combinations for 72 hours (A and B, respectively). Quantifications represent averages of three independent experiments. C) Colony forming assay of MDA-MB-468 AhR-expressing and AhR KO cells treated with 100 nM Evoxine, 500 nM Citropten, […] 11-Cl-BBQ, or combinations of each compound with 11-Cl-BBQ.
Annexin-V staining was performed 48 hours post-treatment by harvesting cells (floating and attached) with trypsin, followed by addition of serum-containing media, and two washes with ice-cold PBS. Cells were stained with Annexin-V-PerCP conjugates (eBioscience, Waltham, MA, USA) for 15 minutes on ice before washing out residual stain and resuspending in 300 μL of binding buffer. 10,000 events were collected per sample. Data was acquired with a CytoFLEX S flow cytometer (Beckman Coulter, Brea, CA), and analyzed using the CytExpert software (Beckman Coulter).

cancer cell line = test: Cell viability of combinations of AhR ligand and synergizer (FIGS. 51, 52); assay type: cell-based; conditions: for cell viability, monotreatments: alone (FIG. 51); for cell viability, mono-applications: alone (FIG. 52)
Description: FIG. 51 provides data from cancer cell line trials using 11-Cl-BBQ alone, Evoxine alone, Citropten alone, and combinations comprising 11-Cl-BBQ and Citropten and 11-Cl-BBQ and Evoxine. […] The decrease in cell viability was more than additive. Specifically, for Evoxine in combination with Analog 523, the reduction in cell viability was: 31% at 1 μM; 41% at 3 μM; and 42% at 10 μM. For Citropten in combination with Analog 523, the reduction in cell viability was: 16% at 1 μM; 34% at 3 μM; and 43% at 10

p53 = test: Western blot of p53 protein levels in H460 cells; assay type: cell-based, human
Description: Whole cell lysate was prepared in RIPA lysis buffer with 1× Laemmli buffer, then denatured by heating at 100° C. for 5 minutes. Denatured proteins were separated in SDS-PAGE gel and transferred onto PVDF membrane. The PVDF membrane was incubated in TBST with 5% nonfat dry milk for one hour at room temperature prior to incubating with primary antibody of interest overnight at 4° C. with gentle rotation. Appropriate horse radish peroxidase conjugated secondary antibody was applied for one hour at room temperature. Signal was developed by applying SuperSignal West Pico chemiluminescence substrate and captured using the ChemiDoc imaging instrument. Primary antibodies used in this study: anti-AHR antibody (BML-SA210-Enzo Biochem, Farmingdale, NY), anti-p27^Kip1 antibody (610242-BD Biosciences), anti-p53 antibody (DO-1 sc-126-Santa Cruz Biotechnology, Dallas, TX), anti-p21 antibody (2947S-Cell Signaling Technology, Danvers, MA), and anti-GAPDH antibody (sc-36502, Santa Cruz).

H460 cells [2] = test: Zebrafish tumor xenograft assay with pre-treated H460 cells; assay type: in vivo; conditions: cells exposed to 1 μM or 5 μM for 72 hours, washed out; days 1 and 4 post-injection; AhR-expressing cells
Description: H460 AHR wildtype (CR-V2) and knockout (CR-AHR3) cells were treated with 11-Cl-BBQ (1 and 5 μM) or 0.1% DMSO as vehicle control for 72 hours in RPMI media supplemented with 1% FBS. Cells were trypsinized, dyed with cell viable dye CM-Di1 (Thermofisher), and micro-injected into zebrafish embryos. The growth cancer xenografts were monitored at one day and four days post injection. Zebrafish were housed at the Sinnhuber Aquatic Research Laboratory at Oregon State University (Corvallis, OR, USA), and experiments were conducted according to Institutional Animal Care and Use Committee protocols.

lung cancer cells = test: Viability of lung cancer cell lines (CellTiter Glo); assay type: cell-based, human; conditions: 10 nM to 10 μM, 72 hours
Description: Cancer cells were seeded in 96-well plates at a density of 3,000 cells per well in their optimal culture medium supplemented with 1% FBS overnight, then compounds were added at indicated concentrations and incubated for 72 hours; otherwise, different treatment times will be specified. Cell viability was measured using the ATP-based CellTiter Glo assay (Promega-Madison, WI) following the manufacturer's protocol. Luminescent signals were recorded using the Tropix TR717 microplate luminometer. The viability of cultures following each treatment was normalized to vehicle treatment (0.1% DMSO (v/v)).

H460 cells [3] = test: Annexin V staining, H460 cells; assay type: cell-based, human; conditions: 1 and 10 μM, 72 hours
Description: […] Cells were stained with Annexin-V-PerCP conjugates (eBioscience, Waltham, MA, USA) for 15 minutes on ice before washing out residual stain and resuspending in 300 μL of binding buffer. 10,000 events were collected per sample. Data was acquired with a CytoFLEX S flow cytometer (Beckman Coulter, Brea, CA), and analyzed using the CytExpert software (Beckman Coulter).

H460 cells [4] = test: Colony forming assay, H460 cells; assay type: cell-based, human; conditions: 0.1-10 µM, 14 days
Description: H460 cells were seeded in 6-well plates at a density of 200 cell per well in complete growth media. 11-Cl-BBQ or DMSO were added the following day as indicated concentrations for two weeks in 1% FBS RMPI media, media and treatments were replenished twice a week. Cell colonies were fixed and stained with methylene blue in 50% ethanol solution overnight. Pictures of cell colonies were captured using the ChemiDoc imaging instrument, and quantified using OpenCFU software.

[5] = Dose studies in mice, serum concentration; assay type: in vivo, mouse
H460 cells [6] = test: Cell cycle analysis, H460 cells; assay type: cell-based, human; conditions: 2.5 μM, 24 hours
Description: Cells were harvested by applying trypsin-EDTA then washed twice with phosphate-buffered saline (PBS) solution, fixed with 70% ethanol for 15 minutes at room temperature and kept at −20° C. overnight. Fixed samples were washed twice with PBS and stained with Hoechst 33258 (Invitrogen, Carlsbad, CA) at the final concentration of 1 μg/ml in the 0.1% Triton X-100/PBS for 20 minutes at room temperature. DNA content was analyzed by flow cytometer for 10,000 cells per sample, singlets population was selected for further analysis and cell cycle was assigned by fitting the DNA content into Dean-Jett-Fox model using FlowJo software.

## COc1cccc2c1C(=O)c1c(O)c3c(c(O)c1C2=O)C[C@@](O)(C(=O)CO)C[C@@H]3O[C@H]1C[C@H](N)[C@H](O)[C@H](C)O1 [doxorubicin, reference compound]
H460 cells [1]; Dox 50 nM, 5 days
  SA-β-gal expression: induced SA-β-gal expression independent of the AhR status

## COC(=O)c1ccc2c(c1)nc(-c1cccc3ccccc13)n2C(=O)c1ccc(F)c(F)c1 [PRXS-848]
AhR
  activation of AhR transcription (FIG. 76): did not activate AhR

## COc1c2ccoc2nc2c(OC)c(OC[C@@H](O)C(C)(C)O)ccc12 [Evoxine]
HepG2 cells; 2.5 μM
  HepG2 colony formation: little effect on colony formation inhibition
MDA-MB-468 cells; 10 μM
  apoptotic response (Annexin-V staining): 0.5%
Cancer cell line
  cell viability, monotreatments: little effect
  cell viability, mono-applications: largely ineffective in reducing cell viability

## Clc1cc2c(cc1Cl)Oc1cc(Cl)c(Cl)cc1O2 [TCDD, reference compound]
p53; TCDD 30 nM
  expression of p53 protein: not altered

## O=c1c2cccc3cccc(c32)c2nc3cc(Cl)ccc3n12 [Analog 11-Cl-BBQ]
HepG2 cells; 10 μM
  HepG2 colony formation: little effect on colony formation inhibition
H460 cells [2]
  growth of cancer cell xenografts: significantly lower growth
Lung cancer cells
  growth of lung cancer cells: decreased the growth of lung cancer cells in a dose-dependent manner
H460 cells [3]
  Annexin V staining (cell death): negative for Annexin V staining
H460 cells [4]
  colony formation of AhR-expressing H460 cells: strongly inhibited colony formation
[5]; 2 mg/Kg intravenous administration
  concentration detected in mouse serum: up to 1.6 μM
[5]; 8 mg/Kg oral administration
  concentration detected in mouse serum: 3 µM
MDA-MB-468 cells; 0.25 μM
  apoptotic response (Annexin-V staining): 7.3%
Cancer cell line
  cell viability, monotreatments: little effect
p53; 5 μM, from 4 h, further at 6 and 9 h
  p53 protein levels: increased p53 protein levels
H460 cells [1]; 2.5 μM for 120 h, AhR-dependent
  SA-β-gal expression: significant increase in SA-β-gal expression
H460 cells [6]; vehicle 35%
  cells in S-phase: 15%
H460 cells [6]; vehicle 45%
  cells in G1 phase: > 70%

## COC(=O)c1ccc2nc(-c3cccc4ccccc34)n(C(=O)c3ccc(F)c(F)c3)c2c1 [PRXS-849]
AhR
  activation of AhR transcription (FIG. 76): did not activate AhR

## COc1cc(OC)c2ccc(=O)oc2c1 [Citropten, citropten]
MDA-MB-468 cells; 10 μM
  apoptotic response (Annexin-V staining): 2.7%
Cancer cell line
  cell viability, monotreatments: little effect
  cell viability, mono-applications: largely ineffective in reducing cell viability
